Among the test systems are OVCAR-3 ovarian; NCI-H226 lung; A549 NSCLC; HCT-116 colon; MALME-3M melanoma; UACC-257 melanoma; EKVX NSCLC; M14 melanoma; U251 CNS; T-47D breast.
Common to all, as to assay: NCI-60 cell line screen, 48 h

Each structure is given as a SMILES string. Values joined by “and” are separate entries in the source; they are usually repeats but may differ in a detail not shown here. Equal values may be shown once.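 96-well plates; 48 h exposure; 5 concentrations. Endpoints by linear interpolation between flanking doses. Not reached: highest tested concentration assigned. Here, GI50 denotes the concentration required for 50% inhibition of growth. The concentration for full growth arrest is given as TGI.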 Bounds are passed on as bounds.

Regarding `C=C1C(=O)O[C@H]2[C@H]1CC/C(COC(=O)/C=C/c1c[nH]c3ccccc13)=C\CC[C@@]1(C)O[C@@H]21`, the GI50 in the experiment on OVCAR-3 ovarian is 0.173 µM; in the experiment on NCI-H226 lung, 0.23 µM; with A549 NSCLC it was 1.27 µM; with HCT-116 colon, 0.185 µM; in the experiment on MALME-3M melanoma it was 0.283 µM; with UACC-257 melanoma it was 0.354 µM. Moreover, the GI50 in the experiment on EKVX NSCLC is 0.238 µM; with M14 melanoma, 0.221 µM; in the experiment on U251 CNS, 0.212 µM; in the experiment on T-47D breast, 0.205 µM. Besides, the TGI in the experiment on OVCAR-3 ovarian stood at 0.37 µM; in the experiment with NCI-H226 lung, 0.702 µM; with A549 NSCLC, 2.71 µM; with HCT-116 colon it was 0.425 µM; in the experiment with MALME-3M melanoma, 0.828 µM; in the experiment on UACC-257 melanoma it was 1.46 µM. Further, the TGI worked out at 0.769 µM in the experiment on EKVX NSCLC, 0.572 µM in the experiment with M14 melanoma, 0.528 µM in the experiment on U251 CNS and 0.626 µM in the experiment on T-47D breast.
As for `Cc1c(N)nc(C(CC(N)=O)NCC(N)C(N)=O)nc1C(=O)NC(C(=O)NC(C)C(O)C(C)C(=O)NC(C(=O)NCCc1nc(-c2nc(C(=O)NCCCNCCCCN)cs2)cs1)C(C)O)C(OC1OC(CO)C(O)C(O)C1OC1OC(CO)C(O)C(OC(N)=O)C1O)c1cnc[nH]1` (stereo not given), the GI50 with OVCAR-3 ovarian is 7.69 µg/mL; with NCI-H226 lung, 9.65 µg/mL and 3.45 µg/mL; with A549 NSCLC it was 2.69 µg/mL and 1.06 µg/mL; with HCT-116 colon, 0.288 µg/mL and 1.04 µg/mL; with UACC-257 melanoma, 86.1 µg/mL; in the experiment with M14 melanoma, 9.31 µg/mL. Besides, the values for the GI50 in the experiment with U251 CNS and with T-47D breast were 8.06 µg/mL and 16.5 µg/mL, respectively. Besides, the TGI with A549 NSCLC was above 10 µM; with HCT-116 colon, 26.8 µg/mL and > 10 µM; with MALME-3M melanoma it was above 10 µM; in the experiment with UACC-257 melanoma, above 10 µM; in the experiment on EKVX NSCLC, above 10 µM; in the experiment with M14 melanoma, above 10 µM. The compound further had a TGI with U251 CNS above 10 µM.
For `O=C(O)c1cc2c(c3ccsc13)-c1ccccc1CC2`, the GI50 was 28.8 µM in the experiment on OVCAR-3 ovarian; 34.8 µM in the experiment with NCI-H226 lung; 36.1 µM with A549 NSCLC; 34.9 µM in the experiment on HCT-116 colon; 18.8 µM in the experiment on MALME-3M melanoma; 53.4 µM in the experiment on UACC-257 melanoma. Also, the GI50 in the experiment on EKVX NSCLC is 50.4 µM; with M14 melanoma, 42.2 µM; with U251 CNS, 36.8 µM; in the experiment on T-47D breast, 44.7 µM. The TGI in the experiment on OVCAR-3 ovarian was above 100 µM; in the experiment with NCI-H226 lung it was above 100 µM; in the experiment with A549 NSCLC, above 100 µM; in the experiment on HCT-116 colon, above 100 µM; in the experiment with MALME-3M melanoma, 59.6 µM; with UACC-257 melanoma it was above 100 µM. In addition, the TGI in the experiment with EKVX NSCLC, in the experiment on M14 melanoma, in the experiment on U251 CNS and with T-47D breast was above 100 µM in each case.
In the case of `O=C(Nc1cccc([N+](=O)[O-])c1)c1cc2ccccc2cc1O`, the GI50 was 0.783 µM in the experiment on OVCAR-3 ovarian; 1.87 µM in the experiment with NCI-H226 lung; 2.84 µM in the experiment with A549 NSCLC; 0.772 µM in the experiment with HCT-116 colon; 0.376 µM in the experiment on MALME-3M melanoma; 0.881 µM in the experiment on UACC-257 melanoma. The GI50 was 1.87 µM in the experiment on EKVX NSCLC, 1.58 µM in the experiment on M14 melanoma, 1.48 µM with U251 CNS and 2.47 µM in the experiment with T-47D breast. In addition, the TGI with OVCAR-3 ovarian was 7.33 µM; in the experiment on NCI-H226 lung it was 7.43 µM; with A549 NSCLC it was above 100 µM; in the experiment with HCT-116 colon, 3.17 µM; in the experiment on MALME-3M melanoma, 2.26 µM; in the experiment on UACC-257 melanoma it was 5.23 µM. The TGI is 8.2 µM in the experiment on EKVX NSCLC, 6.68 µM in the experiment on M14 melanoma, 9.27 µM with U251 CNS and 7.88 µM with T-47D breast.
Turning to `CN(C)c1ccc(N=C(C#N)c2nc(N)nc(N3CCN(c4ccccc4)CC3)n2)cc1`, the GI50 was 27.5 µM in the experiment on OVCAR-3 ovarian; 22.3 µM in the experiment on NCI-H226 lung; 15.3 µM in the experiment with A549 NSCLC; 17.4 µM in the experiment with HCT-116 colon; 0.0338 µM in the experiment on MALME-3M melanoma; 28.1 µM with UACC-257 melanoma. The GI50 in the experiment with EKVX NSCLC is above 30.1 µM; in the experiment on M14 melanoma it was above 50 µM; in the experiment on U251 CNS, above 35.1 µM; in the experiment on T-47D breast, above 50 µM. Moreover, the TGI in the experiment on OVCAR-3 ovarian is above 50 µM; in the experiment on NCI-H226 lung, above 50 µM; in the experiment with A549 NSCLC, above 34.2 µM; in the experiment with HCT-116 colon, above 50 µM; with MALME-3M melanoma, 1.16 µM; in the experiment on UACC-257 melanoma, above 44.2 µM. Further, the TGI in the experiment on EKVX NSCLC, with M14 melanoma, with U251 CNS and in the experiment on T-47D breast was above 50 µM throughout.
Regarding `CC(C)(O)CCC(O)C(C)(O)C1CCC2(O)C3=CC(=O)C4(O)CC(O)C(O)CC4(C)C3CCC12C` (stereo not given) (tested in a mixture with another compound), the TGI with OVCAR-3 ovarian, in the experiment with NCI-H226 lung, in the experiment with A549 NSCLC, with HCT-116 colon, in the experiment on MALME-3M melanoma and in the experiment with UACC-257 melanoma was above 100 µM in each case. Further, the TGI in the experiment with EKVX NSCLC, in the experiment with M14 melanoma, with U251 CNS and in the experiment with T-47D breast was above 100 µM throughout.
Regarding `C#CCOc1cccc(Nc2ncc3ncn(C4CCN(C(=O)CCl)C4)c3n2)c1` (stereo not given), the GI50 was 37.8 µM with OVCAR-3 ovarian; above 62.5 µM in the experiment with NCI-H226 lung; above 62.5 µM in the experiment with A549 NSCLC; 21.5 µM in the experiment with HCT-116 colon; 8.78 µM with MALME-3M melanoma; above 62.5 µM with UACC-257 melanoma. The GI50 in the experiment on EKVX NSCLC, in the experiment with M14 melanoma, with U251 CNS and in the experiment on T-47D breast was above 62.5 µM each time. Moreover, the TGI in the experiment with OVCAR-3 ovarian is above 62.5 µM; in the experiment with NCI-H226 lung, above 62.5 µM; with A549 NSCLC, above 62.5 µM; in the experiment on HCT-116 colon, above 62.5 µM; with MALME-3M melanoma, 56.2 µM; in the experiment with UACC-257 melanoma, above 62.5 µM. Further, the TGI in the experiment on EKVX NSCLC, with M14 melanoma, in the experiment on U251 CNS and with T-47D breast was above 62.5 µM throughout.
Take `CS(=O)(=O)Nc1cc(-c2ccc3ncnc(Nc4cccc(Cl)c4F)c3c2)cnc1Cl`: the GI50 in the experiment on OVCAR-3 ovarian is 1.84 µM; in the experiment on NCI-H226 lung, 2.57 µM; with A549 NSCLC, 5.3 µM; with HCT-116 colon, 4.02 µM; in the experiment on MALME-3M melanoma, 1.83 µM; with UACC-257 melanoma, 2.62 µM. Also, the GI50 is 1.44 µM in the experiment with EKVX NSCLC, 3.17 µM with M14 melanoma, 2.45 µM in the experiment with U251 CNS and 0.382 µM in the experiment on T-47D breast. In addition, the TGI with OVCAR-3 ovarian came out at 7.52 µM; in the experiment on NCI-H226 lung, 18.2 µM; with A549 NSCLC, 24.1 µM; in the experiment on HCT-116 colon, 19.9 µM; in the experiment with MALME-3M melanoma it was 7.66 µM; in the experiment on UACC-257 melanoma it was 18 µM. In addition, the TGI in the experiment with EKVX NSCLC was determined as 6.27 µM; in the experiment on M14 melanoma, 17 µM; in the experiment on U251 CNS it was 14.9 µM; in the experiment with T-47D breast, 10.6 µM.

Source of the values: PubChem BioAssay (NCI).
